Experiments:
Assay in all cases: NCI-60 single-dose antiproliferative assay (SRB)
Type in all cases: cell-based
[1] = test system: TK-10; conditions: Homo sapiens; 10 μM single dose; TK-10, Renal cancer; read-out: Cell Growth inhibition Percent
Procedure, shortened: (§1)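 A 48 h exposure to 10 µM compound, in triplicate wells, followed 24 h of cell attachment in RPMI 1640 with 5% FBS and 2 mM glutamine. TCA-fixed cells were stained with SRB and read at 515 nm to give percent growth relative to controls.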

[2] = test system: OVCAR-5; conditions: Homo sapiens; 10 μM single dose; OVCAR-5, Ovarian Cancer; read-out: Cell Growth inhibition Percent
Procedure, shortened: as §1

[3] = test system: HS 578T; conditions: Homo sapiens, 10 μM single dose, Breast cancer, read-out: Cell Growth inhibition Percent
Procedure, shortened: as §1

[4] = test system: SNB-19; conditions: Homo sapiens; 10 μM single dose; SNB-19, CNS cancer; read-out: Cell Growth inhibition Percent
Procedure, shortened: as §1

[5] = test system: SK-MEL-2; conditions: Homo sapiens; 10 μM single dose; SK-MEL-2, Melanoma; read-out: Cell Growth inhibition Percent
Procedure, shortened: as §1

[6] = test system: COLO205; conditions: Homo sapiens, COLO 205; 10 μM single dose; COLO205, Colon cancer; read-out: Cell Growth inhibition Percent
Procedure, shortened: as §1

O=C1Nc2ccccc2C1=CNc1ccc(C(=O)O)cc1 [Compound 4c, 4-{[(2-Oxoindolin-3-ylidene)methyl]amino}benzoic acid]
inhibition at 10 µM [1]: 19.1%
inhibition at 10 µM [2]: 0.03%
inhibition at 10 µM [3]: 0.5%

NS(=O)(=O)N/C=C1/C(=O)Nc2ccccc21 [Compound 5, 3-(sulfamidmethylene)indoline-2-one]
inhibition at 10 µM [4]: 0.31%
inhibition at 10 µM [5]: 2.36%

O=C1Nc2ccccc2C1=CNc1ccc(C(=O)C=CNc2nccs2)cc1 [Compound 13c, 3-{[(4-{3-[Thiazol-2-ylamino]acryloyl}phenyl)amino]methylene}indolin-2-one]
inhibition at 10 µM [6]: 1.8%

O=C(Nc1ccc(NC=C2C(=O)Nc3ccccc32)cc1)Nc1nccs1 [Compound 15c, 1-{4-[((2-Oxoindolin-3-ylidene)methyl)amino]phenyl}-3-(thiazol-2-yl)urea]
inhibition at 10 µM [1]: 24.3%
inhibition at 10 µM [2]: 39.6%
inhibition at 10 µM [6]: 74.2%
inhibition at 10 µM [4]: 69%
inhibition at 10 µM [5]: 37.9%
inhibition at 10 µM [3]: 68.5%

Reference: publication PMC10353187, “Discovery of a new potent oxindole multi-kinase inhibitor among a series of designed 3-alkenyl-oxindoles with ancillary carbonic anhydrase inhibitory activity as antiproliferative agents” (BMC Chemistry, 2023)
